Laboratory results reported in US6413997B1, “3-(substituted phenyl)-5-(substituted heterocyclyl)-1,2,4-triazole compounds” (priority 1998, dated 2002).

tested on: cotton aphids (aphis gossypii); assay: Insecticidal test for cotton aphid, foliar spray on infested squash cotyledons; format: in vivo; conditions: 50 ppm spray, graded after 3 days, versus untreated check
Method: Insecticidal Test for Cotton Aphid (Aphis gossypii)
To prepare spray solutions, 2 mg of each test compound was dissolved into 2 mL of a 90:10 acetone:ethanol solvent. This 2 mL of chemical solution was added to 38 mL of water containing 0.05% Tween 20 surfactant to produce a 50 ppm spray solution.
Squash cotyledons were infested with cotton aphid (all life stages16-20 hours prior to application of spray solution. The solution was sprayed on both sides of each infested squash cotyledon (0.5 mL×2 each side with a sweeping action using a total of 2 mL of spray solution. The plants were allowed to air dry and held for 3 days in a controlled room at 26° C. and 40% RH after which time the test was graded. Grading was by actual count using a dissecting microscope and comparison of test counts to the untreated check. Results are given in Table 1 as percent control based on population reduction versus the untreated.

Row | SMILES | CA: activity at 50 ppm against cotton aphids (rating of % mortality / percent control)
1 | Cc1cnsc1-c1nc(-c2c(F)cccc2Cl)nn1C [Compound 3] | B (81-90)
2 | Cn1nc(-c2c(F)cccc2F)nc1-c1snc(C#N)c1Br [Compound 4] | A (91-100)
3 | Cn1nc(-c2c(F)cccc2F)nc1-c1snc(-c2ccccc2)c1Br [Compound 7] | B (81-90)
4 | Cn1nc(-c2c(F)cccc2Cl)nc1-c1snc(-c2ccccc2)c1Br [Compound 8] | B (81-90)
5 | Cn1nc(-c2c(F)cccc2F)nc1-c1cc(-c2ccc(Cl)cc2)ns1 [Compound 9] | E (51-60)
6 | Cn1nc(-c2c(F)cccc2F)nc1-c1snc(-c2ccc(Cl)cc2)c1Br [Compound 11] | A (91-100)
7 | Cn1nc(-c2c(F)cccc2Cl)nc1-c1snc(-c2ccc(Cl)cc2)c1Br [Compound 12] | A (91-100)
8 | Cn1nc(-c2c(F)cccc2F)nc1-c1snc(-c2cccc(C(F)(F)F)c2)c1Br [Compound 16] | B (81-90)
9 | Cn1nc(-c2c(F)cccc2F)nc1-c1cc(C(C)(C)C)no1 [Compound 30] | D (61-70)
10 | Cc1ncsc1-c1nc(-c2c(F)cccc2F)nn1C [Compound 37] | B (81-90)
11 | Cn1nc(-c2c(F)cccc2F)nc1-c1scnc1Cl [Compound 38] | A (91-100)
12 | Cc1nc(Cl)sc1-c1nc(-c2c(F)cccc2F)nn1C [Compound 39] | A (91-100)
13 | Cc1nc(Cl)sc1-c1nc(-c2c(F)cccc2Cl)nn1C [Compound 40] | A (91-100)
14 | Cc1nc(Br)sc1-c1nc(-c2c(F)cccc2F)nn1C [Compound 41] | A (91-100)
15 | Cn1nc(-c2c(F)cccc2F)nc1-c1sc(Cl)nc1Cl [Compound 42] | B (81-90)
16 | Cc1nc(-c2ccc(C(F)(F)F)cc2)sc1-c1nc(-c2c(F)cccc2F)nn1C [Compound 47] | D (61-70)
17 | Cc1nc(-c2nc(-c3c(F)cccc3F)nn2C)cs1 [Compound 48] | D (61-70)
18 | Cn1nc(-c2c(F)cccc2F)nc1-c1csc(-c2cccs2)n1 [Compound 50] | A (91-100)
19 | Cn1nc(-c2c(F)cccc2F)nc1-c1snnc1-c1ccccc1 [Compound 58] | A (91-100)
20 | CCn1nc(C)cc1-c1nc(-c2c(F)cccc2F)nn1C [Compound 60] | B (81-90)
21 | Cc1cc(-c2nc(-c3c(F)cccc3F)nn2C)n(C)n1 [Compound 62] | A (91-100)
22 | Cc1cc(-c2nc(-c3c(F)cccc3Cl)nn2C)n(C)n1 [Compound 63] | A (91-100)
23 | Cn1nc(-c2c(F)cccc2F)nc1-c1cc(C(C)(C)C)nn1Cc1ccccc1 [Compound 70] | B (81-90)
24 | CCn1nc(-c2nc(-c3c(F)cccc3Cl)nn2C)cc1C [Compound 74] | A (91-100)
25 | Cc1nn(C)c(Cl)c1-c1nc(-c2c(F)cccc2Cl)nn1C [Compound 76] | B (81-90)
26 | Cc1nc(C(F)(F)F)sc1-c1nc(-c2c(F)cccc2F)nn1C [Compound 91] | C (71-80)

same assay, conditions: Aphis gossypii, foliar, 72 h, 50 ppm spray, graded after 3 days, versus untreated check, read-out: CA: activity at 50 ppm against cotton aphids (rating of % mortality / percent control)

Row | SMILES | mortality at 50 ppm [%]
27 | Cc1ncoc1-c1nc(-c2c(F)cccc2F)nn1C [Compound 55, 3-(2,6-Difluorophenyl)-5-(4-methyloxazol-5-yl)-1-methyl[1,2,4]triazole] | 0 to 51

tested on: twospotted spider mite (tetranychus uriticae); assay: Two-spotted spider mite test, ovicide method on cotton leaf discs; format: in vivo; conditions: foliar, 144 h, leaf disc dip, 6 days, hatched larvae versus untreated discs, read-out: TSSM: activity at 100 ppm against twospotted spider mite (rating of % mortality / percent control)
Method: Insecticidal Test for Two-spotted Spider Mite (Tetranychus urticae)
Ten adult female two-spotted spider mites were placed on eight 2.2 cm leaf discs of cotton leaf, allowed to oviposit over 24 hours, and thereafter removed. The leaf discs were immersed in 100 ppm test solutions for 3 seconds, then allowed to dry with sixteen discs left untreated as a negative control. Discs were placed on an agar substrate and held at 24° C. and 90% relative humidity for 6 days.

Row | SMILES | mortality at 100 ppm [%]
28 | Cc1ncoc1-c1nc(-c2c(F)cccc2F)nn1C [Compound 55, 3-(2,6-Difluorophenyl)-5-(4-methyloxazol-5-yl)-1-methyl[1,2,4]triazole] | 0 to 51

same assay, conditions: leaf disc dip, 6 days, hatched larvae versus untreated discs

Row | SMILES | TSSM: activity at 100 ppm against twospotted spider mite (rating of % mortality / percent control)
29 | Cc1cnsc1-c1nc(-c2c(F)cccc2Cl)nn1C [Compound 3] | A (91-100)
30 | Cn1nc(-c2c(F)cccc2F)nc1-c1snc(C#N)c1Br [Compound 4] | G (Inactive)
31 | Cn1nc(-c2c(F)cccc2F)nc1-c1snc(-c2ccccc2)c1Br [Compound 7] | G (Inactive)
32 | Cn1nc(-c2c(F)cccc2Cl)nc1-c1snc(-c2ccccc2)c1Br [Compound 8] | C (71-80)
33 | Cn1nc(-c2c(F)cccc2F)nc1-c1snc(-c2ccc(Cl)cc2)c1Br [Compound 11] | A (91-100)
34 | Cn1nc(-c2c(F)cccc2Cl)nc1-c1snc(-c2ccc(Cl)cc2)c1Br [Compound 12] | A (91-100)
35 | Cn1nc(-c2c(F)cccc2F)nc1-c1snc(-c2ccc([N+](=O)[O-])cc2)c1Br [Compound 15] | G (Inactive)
36 | Cn1nc(-c2c(F)cccc2F)nc1-c1snc(-c2cccc(C(F)(F)F)c2)c1Br [Compound 16] | G (Inactive)
37 | Cc1cc(-c2nc(-c3c(F)cccc3F)nn2C)on1 [Compound 28] | G (Inactive)
38 | Cn1nc(-c2c(F)cccc2F)nc1-c1cc(C(C)(C)C)no1 [Compound 30] | G (Inactive)
39 | Cc1ncsc1-c1nc(-c2c(F)cccc2F)nn1C [Compound 37] | A (91-100)
40 | Cn1nc(-c2c(F)cccc2F)nc1-c1scnc1Cl [Compound 38] | A (91-100)
41 | Cc1nc(Cl)sc1-c1nc(-c2c(F)cccc2F)nn1C [Compound 39] | A (91-100)
42 | Cc1nc(Cl)sc1-c1nc(-c2c(F)cccc2Cl)nn1C [Compound 40] | A (91-100)
43 | Cc1nc(Br)sc1-c1nc(-c2c(F)cccc2F)nn1C [Compound 41] | A (91-100)
44 | Cn1nc(-c2c(F)cccc2F)nc1-c1sc(Cl)nc1Cl [Compound 42] | A (91-100)
45 | Cc1nc(-c2ccc(C(F)(F)F)cc2)sc1-c1nc(-c2c(F)cccc2F)nn1C [Compound 47] | A (91-100)
46 | Cc1nc(-c2nc(-c3c(F)cccc3F)nn2C)cs1 [Compound 48] | G (Inactive)
47 | Cc1nc(-c2nc(-c3c(F)cccc3Cl)nn2C)cs1 [Compound 49] | C (71-80)
48 | Cn1nc(-c2c(F)cccc2F)nc1-c1csc(-c2cccs2)n1 [Compound 50] | G (Inactive)
49 | Cn1nc(-c2c(F)cccc2F)nc1-c1snnc1-c1ccccc1 [Compound 58] | C (71-80)
50 | CCn1nc(C)cc1-c1nc(-c2c(F)cccc2F)nn1C [Compound 60] | G (Inactive)
51 | Cc1cc(-c2nc(-c3c(F)cccc3F)nn2C)n(C)n1 [Compound 62] | G (Inactive)
52 | Cc1cc(-c2nc(-c3c(F)cccc3Cl)nn2C)n(C)n1 [Compound 63] | G (Inactive)
53 | Cn1nc(-c2c(F)cccc2F)nc1-c1cc(C(C)(C)C)nn1Cc1ccccc1 [Compound 70] | G (Inactive)
54 | Cn1cc(Cl)c(-c2nc(-c3c(F)cccc3Cl)nn2C)n1 [Compound 75] | G (Inactive)
55 | Cc1nn(C)c(Cl)c1-c1nc(-c2c(F)cccc2Cl)nn1C [Compound 76] | A (91-100)
56 | Cn1nc(-c2c(F)cccc2Cl)nc1-c1c(C(F)(F)F)nn(C)c1Cl [Compound 77] | A (91-100)
57 | CCCc1c(-c2nc(-c3c(F)cccc3F)nn2C)cnn1-c1ccc(Cl)cc1 [Compound 80] | G (Inactive)
58 | Cc1nc(-c2ccc(Cl)cc2)sc1-c1nc(-c2c(F)cccc2F)nn1C [Compound 90] | A (91-100)

tested on: sweetpotato whitefly (bemisia tabaci); assay: Sweetpotato whitefly test on cotton plants under laboratory conditions; format: in vivo; conditions: 800 ppm (table footnote), spray on cotton plants with eggs, 21 days, spent pupal cases versus solution-only plants
Method: Evaluation of Tests Compounds on Sweetpotato Whitefly (Bemisia tabacia) Under Laboratory Conditions
Four mg of each test compound was dissolved by adding 5 ml of a 90:10 acetone:ethanol solvent mixture to the vial containing the sample compound. […]
Five-week-old cotton plants reared in a greenhouse were stripped of all foliage except for the two uppermost true leaves that were greater than 5 cm in diameter. These plants were then placed into a laboratory colony of whiteflies for three days for oviposition by the colony females. All whiteflies were then removed from the test plants with pressurized air. The spray solution was then applied to the test plants with a hand-held syringe fitted with hollow cone nozzle. One mL spray solution was applied to each leaf top and bottom for a total of 4 mL per plant. Four replications of each test compound utilized a total of 16 mL spray solution. Plants were air dried and then placed in a holding chamber (26° C. and 40% RH for 21 days. Compound efficacy was evaluated by counting, under a dissecting microscope, the number of spent pupal cases per leaf. A spent pupal case represents a whitefly egg that has undergone full development to achieve adult status, thus indicating lack of control.
Percent control based on reduction of spent pupal cases of a test compound compared to solution-only (no test compound sprayed plants is reported in Table 1.

Row | SMILES | WF: activity at 800 ppm against sweetpotato whitefly (rating of % mortality / percent control)
59 | Cc1cnsc1-c1nc(-c2c(F)cccc2Cl)nn1C [Compound 3] | G (Inactive)
60 | Cn1nc(-c2c(F)cccc2F)nc1-c1snc(C#N)c1Br [Compound 4] | G (Inactive)
61 | Cn1nc(-c2c(F)cccc2F)nc1-c1snc(-c2ccccc2)c1Br [Compound 7] | E (51-60)
62 | Cn1nc(-c2c(F)cccc2Cl)nc1-c1snc(-c2ccccc2)c1Br [Compound 8] | G (Inactive)
63 | Cn1nc(-c2c(F)cccc2F)nc1-c1cc(-c2ccc(Cl)cc2)ns1 [Compound 9] | G (Inactive)
64 | Cn1nc(-c2c(F)cccc2F)nc1-c1snc(-c2ccc(Cl)cc2)c1Br [Compound 11] | G (Inactive)
65 | Cn1nc(-c2c(F)cccc2Cl)nc1-c1snc(-c2ccc(Cl)cc2)c1Br [Compound 12] | G (Inactive)
66 | Cn1nc(-c2c(F)cccc2F)nc1-c1snc(-c2ccc([N+](=O)[O-])cc2)c1Br [Compound 15] | G (Inactive)
67 | Cc1cc(-c2nc(-c3c(F)cccc3F)nn2C)on1 [Compound 28] | B (81-90)
68 | Cn1nc(-c2c(F)cccc2F)nc1-c1scnc1Cl [Compound 38] | G (Inactive)
69 | Cc1nc(Cl)sc1-c1nc(-c2c(F)cccc2F)nn1C [Compound 39] | G (Inactive)
70 | Cc1nc(Br)sc1-c1nc(-c2c(F)cccc2F)nn1C [Compound 41] | G (Inactive)
71 | Cn1nc(-c2c(F)cccc2F)nc1-c1sc(Cl)nc1Cl [Compound 42] | G (Inactive)
72 | Cc1nc(-c2ccc(C(F)(F)F)cc2)sc1-c1nc(-c2c(F)cccc2F)nn1C [Compound 47] | G (Inactive)
73 | Cn1nc(-c2c(F)cccc2F)nc1-c1csc(-c2cccs2)n1 [Compound 50] | G (Inactive)
74 | Cn1nc(-c2c(F)cccc2F)nc1-c1snnc1-c1ccccc1 [Compound 58] | G (Inactive)
75 | Cc1cc(-c2nc(-c3c(F)cccc3F)nn2C)n(C)n1 [Compound 62] | E (51-60)
76 | Cn1nc(-c2c(F)cccc2F)nc1-c1cc(C(C)(C)C)nn1Cc1ccccc1 [Compound 70] | E (51-60)
77 | Cn1cc(Cl)c(-c2nc(-c3c(F)cccc3Cl)nn2C)n1 [Compound 75] | B (81-90)
